In US10125135B2, “Chemical compounds” (AstraZeneca AB, priority 2016, dated 2018):
In brackets after ≈: the same amount, converted by molar mass.

Experiments:
ERα receptor = ERα receptor (Homo sapiens (Human), UniProt P03372); conditions: 500mg monthly dose; cited from earlier work
[1] = Human plasma protein binding, equilibrium dialysis (RED); assay type: in vitro ADME; conditions: dialysis for 18 hours
Procedure: Human Plasma Protein Binding
The automated equilibrium dialysis assay in human plasma uses the RED (Rapid Equilibrium Dialysis) Device and sample handling. The assay generally runs over two to three days including delivery of results. After dialysis for 18 hours, plasma and buffer samples are prepared for analysis by liquid chromatography and mass spectrometry. Samples are generally tested in singlicates and quantified by LC/MSMS by using a 7-point calibration curve in plasma. The compounds are pooled together in plasma pools up to 10 compounds. Three reference compounds are used in each run, Propranolol, Metoprolol and Warfarin. Warfarin is used as a control in each pool and Propranolol and Metoprolol are placed randomly in each run. An in-house Excel macro is used for preparation of files for the robot and the mass spectrometer and also used for the calculations of fraction unbound (fu %) in plasma.

[2] = logD shake flask, 1-octanol/aqueous buffer; assay type: physicochemical; conditions: pH 7.4
Excerpt: The lipophilicity of a drug is an important physical property which may influence many biological and metabolic properties of a compound. The distribution coefficient between 1-octanol and aqueous buffer, Log DO/W, at pH 7.4, is the most commonly used measurement of the lipophilicity of a compound. The current method for measurement of Log DO/W is based on the traditional shake flask technique, but with the modification of measuring compounds in mixtures of ten at a time using UPLC with quantitative mass spectrometry (MS) as a method to measure the relative octanol and aqueous concentrations. […] An additional QC sample Caffeine, with low Log D, are used and randomly placed in all runs. The method has been thoroughly validated against the previous shake flask methodologies.

[3] = Thermodynamic solubility, shake-flask; assay type: physicochemical; conditions: thermodynamic from solid; aqueous phosphate buffer pH 7.4, 24 hours at 25° C.
Procedure: The thermodynamic solubility of a research compound is measured under standard conditions. It is a shake-flask approach that uses 10 mM DMSO solutions which are supplied from the Compound Managements liquid store and is a high throughput method. The dried compounds are equilibrated in an aqueous phosphate buffer (pH 7.4) for 24 hours at 25° C., the portion with the dissolved compound is then separated from the remains. The solutions are analyzed and quantified using UPLC/MS/MS, QC-samples are incorporated in each assay-run to ensure the quality of the assay.

[4] = target: estrogen receptor (ERα) in CAMA-1 human breast cancer cell line (Homo sapiens (Human), UniProt P03372); assay: Western blotting assay, CAMA-1 cells; assay type: cell-based; conditions: 100 nM compound, 48 h; normalised to vehicle (0%) and 100 nM fulvestrant (100%)
Sequence of estrogen receptor (ERα) in CAMA-1 human breast cancer cell line (P03372 whole entry): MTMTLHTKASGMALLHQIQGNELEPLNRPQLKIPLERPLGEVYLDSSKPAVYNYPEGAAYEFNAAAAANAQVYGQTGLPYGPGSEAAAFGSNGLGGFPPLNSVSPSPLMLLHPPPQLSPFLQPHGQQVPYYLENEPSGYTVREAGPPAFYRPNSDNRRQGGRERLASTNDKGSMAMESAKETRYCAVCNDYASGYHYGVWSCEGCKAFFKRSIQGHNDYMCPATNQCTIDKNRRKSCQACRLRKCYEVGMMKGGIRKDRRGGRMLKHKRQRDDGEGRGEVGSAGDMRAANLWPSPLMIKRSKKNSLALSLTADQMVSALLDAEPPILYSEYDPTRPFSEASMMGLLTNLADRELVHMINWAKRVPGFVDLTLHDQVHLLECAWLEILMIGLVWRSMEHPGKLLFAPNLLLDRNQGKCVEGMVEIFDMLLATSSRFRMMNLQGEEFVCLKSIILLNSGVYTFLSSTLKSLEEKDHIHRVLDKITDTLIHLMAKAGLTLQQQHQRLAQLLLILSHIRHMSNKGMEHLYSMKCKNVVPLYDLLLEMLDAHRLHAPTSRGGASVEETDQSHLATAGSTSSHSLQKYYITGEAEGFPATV
Procedure: (§1) The ability of compounds to down-regulate estrogen receptor (ER) was assessed by western blotting using human breast cancer cell lines (MCF-7 and CAMA-1). Cells were plated into 12-well tissue culture-treated plates at 0.5×10^6/well in phenol red-free RPMI containing 2 mM L-glutamine and 5% (v/v) charcoal treated foetal calf serum (F6765, Sigma). Cells were incubated with compounds (100 nM) or vehicle control (0.1% DMSO) for 48 h at 37° C., 5% CO2 before washing once with PBS and lysing with 80 μl lysis buffer (25 mM Tris/HCl, 3 mM EDTA, 3 mM EGTA, 50 mM NaF, 2 mM sodium orthovanadate, 0.27 M sucrose, 10 mM β-glycerophosphate, 5 mM sodium pyrophosphate, 0.5% TritonX-100, pH 6.8) on ice.
(§2) Cells were scraped, sonicated and centrifuged prior to performing a protein assay (DC Bio-Rad Protein kit, 500-0116) and making samples to a protein concentration of 1-2 mg/m1 in lysis buffer containing 1× LDS Sample Buffer (NP0007, Invitrogen) and 1× NuPAGE sample reducing agent (NP0009, Invitrogen). Samples were boiled for 10 min at 95° C. and then frozen at −20° C. until ready for use.
(§3) 10-20 μg protein was loaded onto 26-well Criterion gels (BioRad 345-0034). Gels were run at 125 V for 1 hr 25 min in running buffer (24 mM Tris Base Sigma, 192 mM Glycine, 3.5 mM SDS, made up in distilled water). Gels were then transferred at 30V for 2 hr in transfer buffer (25 mM Tris, 192 mM Glycine, 20% (v/v) methanol, pH 8.3, made up in distilled water) onto nitrocellulose membrane. The blot was stained with Ponceau S (P7170, Sigma) and cut according to appropriate molecular weight markers.
(§4) Membranes were blocked for 1 hour at room temp in 5% Marvel (w/v) in phosphate-buffered saline containing 0.05% Tween™ 20 (PBS/Tween). Blots were then incubated with anti-ERα (SP1) rabbit monoclonal antibody (Thermofisher) diluted 1:1000 at 4° C. overnight (with gentle shaking) followed by several washes with PBS/Tween. Secondary anti-rabbit HRP antibody (7074, CST) diluted 1:2000 dilution was incubated for 2 h at room temperature (with gentle shaking) followed by several washes with PBS/Tween. All antibodies were made up in 5% Marvel (w/v) in PBS/Tween.
(§5) The immunoblots were developed using Pierce WestDura chemiluminescent reagents (Thermo Scientific 34076) and developed/quantified on the G-box using Syngene software. Down-regulation of the ERα receptor was normalised to the vehicle control (0% down-regulation) and the 100 nM fulvestrant control (100% down-regulation) run within the same gel.

[5] = target: estrogen receptor (ERα) in MCF-7 human breast cancer cell line (Homo sapiens (Human), UniProt P03372); assay: Western blotting assay, MCF-7 cells; assay type: cell-based; conditions: 100 nM compound, 48 h; normalised to vehicle (0%) and 100 nM fulvestrant (100%)
Sequence of estrogen receptor (ERα) in MCF-7 human breast cancer cell line (P03372 whole entry): as above
Procedure: as §1, §2, §3, §4, §5

[6] = target: ERα receptor in MCF-7 human ductal carcinoma breast cell line (Homo sapiens (Human), UniProt P03372); assay: MCF-7 ER down regulation assay (immuno-fluorescence); assay type: cell-based; conditions: MCF-7 cells, 18-22 hours incubation; read-out: ER down regulation IC50 value
Sequence of ERα receptor in MCF-7 human ductal carcinoma breast cell line (P03372 whole entry): as above

Sequence of ERα receptor (P03372 whole entry): as above

| Structure (SMILES) | turnover of the receptor in patient samples (ERα receptor) | Human plasma protein binding (% free) [1] [% free] | logD [2] | solubility at 24 h [3] [µM] | CAMA1 Western % ER deg vs Fv [4] [%] | MCF7 Western % ER deg vs Fv [5] [%] | DC50 [6] [nM] |
| --- | --- | --- | --- | --- | --- | --- | --- |
| C[C@]12CC[C@@H]3c4ccc(O)cc4C[C@@H](CCCCCCCCC[S+]([O-])CCCC(F)(F)C(F)(F)F)[C@H]3[C@@H]1CC[C@@H]2O (stereo partly shown) [Fulvestrant, fulvestrant] | less than 50% | – | – | – | – | – | – |
| COc1cc(OCCN2CC(CF)C2)ccc1[C@@H]1c2ccc3[nH]ncc3c2C[C@@H](C)N1CC(F)F [Example 7, (6S,8R)-7-(2,2-difluoroethyl)-6-(4-(2-(3-(fluoromethyl)azetidin-1-yl)ethoxy)-2-methoxyphenyl)-8-methyl-6,7,8,9-tetrahydro-3H-pyrazolo[4,3-f]isoquinoline] | – | 11 | 3.4 | 364 (≈ 178 µg/mL) | 95 | 100 | 0.085 |
| COCC(F)(F)CN1[C@H](c2ccc(OCCN3CC(CF)C3)cn2)c2ccc3[nH]ncc3c2C[C@H]1C [Example 10, (6S,8R)-7-(2,2-difluoro-3-methoxypropyl)-6-(5-(2-(3-(fluoromethyl)azetidin-1-yl)ethoxy)pyridin-2-yl)-8-methyl-6,7,8,9-tetrahydro-3H-pyrazolo[4,3-f]isoquinoline] | – | 27 | 2.4 | 811 (≈ 408 µg/mL) | 66 | 87 | 0.51 |
